In article PMC10354055, “An optimized Nurr1 agonist provides disease-modifying effects in Parkinson’s disease models” (Nature Communications, 2023):
“And” between values parts separate entries of the source, which are not always exact repeats. Identical values can stand only once.

What was measured:
Iba-1+ microglia = assay: Primary rat VM neuron-glia co-culture, Iba-1+ microglia (ICC); format: cell-based; conditions: for Iba-1+ cells (% of control): Fig. 2g
Method: Primary rat VM neuron-glia co-culture was prepared from E14 rat embryos (Fisher 344; Charles River)[33]. […] After blocking with 10% normal donkey serum (NDS) and 0.1% Triton X-100 solution for 1 h at room temperature, cells were incubated with primary antibodies against TH (1:1,000; Pel Freez, P40401) and Iba-1 (1:500; Abcam, ab5076) in 1% NDS and 0.1% Triton X-100 solution for overnight at 4 °C. Alexa Fluor 568- or Alexa Fluor 488-conjugated anti-rabbit or anti-goat secondary antibodies (1:500; Invitrogen) were incubated following the primary antibody incubation, and then cover glasses were mounted using FluoShield^TM mounting media (Sigma-Aldrich). Fluorescence images were taken using a KEYENCE microscope (BZ-X800; KEYENCE).

full-length Nurr1 = target: T1, full-length Nurr1 (Mus musculus, UniProt Q06219); assay: Luciferase reporter assay, full-length Nurr1, MN9D cells; format: cell-based
T1 construct: Luciferase assays using Nurr1-LBD (c) or full-length Nurr1 (d) in SK-N-BE(2)C cells; expressed in transfected cells; host or cells: SK-N-BE(2)C (human neuroblastoma); MN9D (murine dopaminergic)
From the text: (§1) Nurr1 transactivity was normalized to β-galactosidase activity.

Nurr1-LBD point mutants [1] = target: T2, Nurr1-LBD point mutants (Mus musculus, UniProt Q06219, S441A); assay: Luciferase assay with point-mutants of Nurr1-LBD, SK-N-BE(2)C cells;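 note: Firefly luciferase normalized to beta-galactosidase activity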; format: cell-based; conditions: Fig. 1g, S441A
T2 construct: expressed in transfected cells; host or cells: SK-N-BE(2)C
Method: as §1
(§2) Nurr1 mutants were generated using the QuikChange ǁ XL site-directed mutagenesis kit (Agilent Technologies) according to the manufacturer’s instruction. Mutagenesis reactions were carried out on the plasmid of mouse Nurr1 cloned into pcDNA3.1 backbone, and then verified by sequencing.

Nurr1-LBD point mutants [2] = target: T3, Nurr1-LBD point mutants (Mus musculus, UniProt Q06219, A586F); assay: as above; format: cell-based; conditions: Fig. 1g, A586F
T3 construct: expressed in transfected cells; host or cells: SK-N-BE(2)C
Method: as §1, §2

Nurr1-LBD point mutants [3] = target: T4, Nurr1-LBD point mutants (Mus musculus, UniProt Q06219, I588A); assay: as above; format: cell-based; conditions: Fig. 1g, I588A
T4 construct: expressed in transfected cells; host or cells: SK-N-BE(2)C
Method: as §1, §2

Nurr1-LBD point mutants [4] = target: T5, Nurr1-LBD point mutants (Mus musculus, UniProt Q06219, I573A); assay: as above; format: cell-based; conditions: Fig. 1g, I573A
T5 construct: expressed in transfected cells; host or cells: SK-N-BE(2)C
Method: as §1, §2

Nurr1-LBD point mutants [5] = target: T6, Nurr1-LBD point mutants (Mus musculus, UniProt Q06219, K590A); assay: as above; format: cell-based; conditions: Fig. 1g, K590A
T6 construct: expressed in transfected cells; host or cells: SK-N-BE(2)C
Method: as §1, §2

HeLa cells [6] = assay: Autophagolysosome (APL) formation assay, mRFP-GFP-LC3, HeLa cells; format: cell-based; conditions: CQ 20 µM, 4A7C-301 1 µM
Method: as §1
HeLa and N27-A cells were transfected with tandem mRFP-GFP-LC3 (Addgene) plasmid using Lipofectamine 2000 (Invitrogen) in 24-well plates. After 24 h, cells were incubated in starvation medium (Earle’s Balanced Salt Solution, EBSS; Lonza) containing bafilomycin A1 (BafA1, 10 nM), CQ (20 µM), or 4A7C-301 (1 µM) for 6 h and then fixed with 4% formaldehyde for fluorescence detection. Images were taken using a KEYENCE microscope and red (mRFP) LC3 dots and yellow (mRFP+GFP) LC3 dots were counted from three independent wells for each treatment group. 10 cells were randomly selected and counted from each well and a total of 30 cells were analyzed for each treatment group in both HeLa and N27-A cells.

Nurr1-LBD = target: T7, Nurr1-LBD (Mus musculus, UniProt Q06219); assay: Luciferase reporter assay, Nurr1-LBD, MN9D cells; format: cell-based
T7 construct: transfected with pCMV-fNurr1, pGAL-Nurr1(LBD), pGAL-Nor1(LBD) or pGAL-Nur77(LBD) and reporter construct; expressed in transfected cells; host or cells: SK-N-BE(2)C (human neuroblastoma), N27-A (rat dopaminergic), MN9D (murine dopaminergic)
From the text: as §1

HeLa cells [7] = assay: Autophagic flux, Western blot LC3B and p62, HeLa cells; format: cell-based; conditions: for autophagic flux (in words): HeLa; for Relative LC3B-II experession (normalized to β-actin): Supplementary Figure S7f; for Relative p62 experession (normalized to β-actin): Supplementary Figure S7g; for Relative LC3B-II expression (normalized to β-actin): Supplementary Figure S7i; for Relative p62 expression (normalized to β-actin): Supplementary Figure S7j
Method: Experiments were confirmed by duplicate measurements of the same sample. Quantification of immunoreactive bands was performed using ImageJ software (NIH, Bethesda, MD, USA) and expressed as a relative ratio against β-actin.
The band intensities were quantified using ImageJ and normalized against β-actin.

N27-A cells = assay: Lysosomal pH detection, LysoSensor, N27-A cells; format: cell-based, rat; conditions: Figure 3d; individual replicates
Method: Lysosomal pH was detected as previously described. Briefly, after incubation in EBSS containing BafA1 (10 nM), CQ (20 µM), or 4A7C-301 (1 µM) for 6 h, HeLa and N27-A cells were treated with LysoSensor™ Yellow/Blue DND-160 (5 µM; Life Technology) for 45 min, followed by 2 washes in HEPES buffer (Gibco). Fluorescence images at excitation/emission wavelengths of 360/460 nm and 470/525 nm were taken immediately using a 400 nm dichroic mirror (KEYENCE). The ratio of fluorescence intensities (F360/470) were measured and calculated manually using ImageJ for each cell. The average pH from measuring 5 cells from each of three wells for each treatment group in both HeLa and N27-A cells was calculated by fitting the F360/470 values to a plotted pH calibration curve with KCl/NaCl buffered from pH 3.5 to 7.0 using GraphPad Prism (Version 8.0.2).

T2 sequence (Q06219 whole entry S441A, the tested form may be a part): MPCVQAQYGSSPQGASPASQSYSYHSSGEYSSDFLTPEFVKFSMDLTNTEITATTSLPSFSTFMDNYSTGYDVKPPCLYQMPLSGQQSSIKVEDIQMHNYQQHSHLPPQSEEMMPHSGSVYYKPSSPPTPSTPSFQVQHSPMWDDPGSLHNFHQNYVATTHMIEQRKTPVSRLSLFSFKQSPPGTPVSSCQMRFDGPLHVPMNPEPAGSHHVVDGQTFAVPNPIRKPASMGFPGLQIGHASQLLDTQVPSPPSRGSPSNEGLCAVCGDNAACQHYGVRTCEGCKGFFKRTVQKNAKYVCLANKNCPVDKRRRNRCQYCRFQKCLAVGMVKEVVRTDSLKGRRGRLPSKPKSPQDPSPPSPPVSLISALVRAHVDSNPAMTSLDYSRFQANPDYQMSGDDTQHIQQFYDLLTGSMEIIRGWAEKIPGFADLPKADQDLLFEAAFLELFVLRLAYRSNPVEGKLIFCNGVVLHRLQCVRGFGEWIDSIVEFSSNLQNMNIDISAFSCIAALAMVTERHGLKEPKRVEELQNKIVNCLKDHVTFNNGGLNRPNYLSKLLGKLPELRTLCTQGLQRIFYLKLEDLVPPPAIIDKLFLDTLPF
T4 sequence (Q06219 whole entry I588A, the tested form may be a part): as the sequence (Q06219 whole entry S441A, the tested form may be a part) above, with A441S, I588A counted along it
T3 sequence (Q06219 whole entry A586F, the tested form may be a part): as the sequence (Q06219 whole entry S441A, the tested form may be a part) above, with A441S, A586F counted along it
T6 sequence (Q06219 whole entry K590A, the tested form may be a part): as the sequence (Q06219 whole entry S441A, the tested form may be a part) above, with A441S, K590A counted along it
T5 sequence (Q06219 whole entry I573A, the tested form may be a part): as the sequence (Q06219 whole entry S441A, the tested form may be a part) above, with A441S, I573A counted along it
T7 sequence (Q06219 360-595 limits assumed): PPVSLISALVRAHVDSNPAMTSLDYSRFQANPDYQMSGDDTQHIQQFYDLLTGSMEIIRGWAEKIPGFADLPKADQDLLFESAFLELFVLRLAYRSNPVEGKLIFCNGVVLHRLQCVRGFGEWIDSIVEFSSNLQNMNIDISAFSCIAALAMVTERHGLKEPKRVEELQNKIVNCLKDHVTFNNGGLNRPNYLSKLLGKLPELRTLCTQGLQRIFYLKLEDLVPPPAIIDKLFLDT
T1 sequence (Q06219 whole entry, the tested form may be a part): as the sequence (Q06219 whole entry S441A, the tested form may be a part) above, with A441S counted along it

SMILES: CCN1CCN(c2cc(N3CCN(CC)CC3)nc(NCCNc3ccnc4cc(Cl)ccc34)n2)CC1 [4A7C-301, N^1-(4,6-bis(4-ethylpiperazin-1-yl)pyrimidin-2-yl)-N^2-(7-chloroquinolin-4-yl)ethane-1,2-diamine]
- Iba-1+ cells (% of control) (Iba-1+ microglia; 4A7C-301 only, 50 nM, 0.05 µM): 77.52 % of control and 86.67 % of control and 96.15 % of control
- Iba-1+ cells (% of control) (Iba-1+ microglia; 4A7C-301 only, 500 nM, 0.5 µM): 69.77 % of control and 67.62 % of control and 86.92 % of control
- Iba-1+ cells (% of control) (Iba-1+ microglia; + LPS, 5 nM, 0.005 µM): 240.31 % of control and 188.57 % of control and 210 % of control
- Iba-1+ cells (% of control) (Iba-1+ microglia; + LPS, 50 nM, 0.05 µM): 160.47 % of control and 128.57 % of control and 139.23 % of control
- Iba-1+ cells (% of control) (Iba-1+ microglia; + LPS, 500 nM, 0.5 µM): 102.4 % of control and 80.95 % of control and 100.31 % of control
- Iba-1+ cells (% of control) (Iba-1+ microglia; + LPS, 1000 nM, 1 µM): 86.82 % of control and 87.62 % of control and 103.69 % of control
- Iba-1+ cells (% of control) (Iba-1+ microglia; + MPP+, 5 nM, 0.005 µM): 114.73 % of control and 125.71 % of control and 144.62 % of control
- Iba-1+ cells (% of control) (Iba-1+ microglia; + MPP+, 50 nM, 0.05 µM): 96.12 % of control and 105.71 % of control and 78.46 % of control
- Iba-1+ cells (% of control) (Iba-1+ microglia; + MPP+, 500 nM, 0.5 µM): 64.34 % of control and 63.81 % of control and 42.31 % of control
- Iba-1+ cells (% of control) (Iba-1+ microglia; + MPP+, 1000 nM, 1 µM): 42.64 % of control and 72.38 % of control and 48.46 % of control
- concentration of optimal suppression of microglial activation (Iba-1+ microglia; against LPS): 500 nM
- concentration of optimal suppression, times lower than CQ (Iba-1+ microglia; against LPS): 40 times
- Luciferase activity (fold) (full-length Nurr1; Fig. S1e, conc. 1 µM, replicates): 4.17 fold and 4.227 fold and 4.16 fold
- Luciferase activity (fold) (full-length Nurr1; Fig. S1e, conc. 10 µM, replicates): 4.281 fold and 4.08 fold and 4.219 fold
- Luciferase activity (fold) (full-length Nurr1; Fig. S1e, conc. 10-1 µM, replicates): 2.744 fold and 2.808 fold and 2.876 fold
- Luciferase activity (fold) (full-length Nurr1; Fig. S1e, conc. 10-2 µM, replicates): 1.103 fold and 1.099 fold and 1.116 fold
- Luciferase activity (fold) (full-length Nurr1; Fig. S1e, conc. 10-3 µM, replicates): 1.064 fold and 1.034 fold and 1.025 fold
- Luciferase activity (fold) (full-length Nurr1; Fig. S3b, 0.001 µM): 1.073 fold and 1.1005 fold and 1.0596 fold
- Luciferase activity (fold) (full-length Nurr1; Fig. S3b, 0.01 µM): 1.226 fold and 1.227 fold and 1.236 fold
- Luciferase activity (fold) (full-length Nurr1; Fig. S3b, 0.1 µM): 2.808 fold and 2.776 fold and 2.787 fold
- Luciferase activity (fold) (full-length Nurr1; Fig. S3b, 1 µM): 4.245 fold and 4.359 fold and 4.273 fold
- Luciferase activity (fold) (full-length Nurr1; Fig. S3b, 10 µM): 4.295 fold and 4.314 fold and 4.305 fold
- Luciferase activity (fold) (Nurr1-LBD point mutants [1]): 8.067 fold and 8.586 fold and 8.69 fold and 8.14 fold
- Luciferase activity (fold) (Nurr1-LBD point mutants [2]): 16.9378 fold and 18.2618 fold and 17.9787 fold and 16.7737 fold
- Luciferase activity (fold) (Nurr1-LBD point mutants [3]): 2.735 fold and 2.747 fold and 2.797 fold and 2.7361 fold
- Luciferase activity (fold) (Nurr1-LBD point mutants [4]): 1.906 fold and 2.068 fold and 2.015 fold and 1.962 fold
- Luciferase activity (fold) (Nurr1-LBD point mutants [5]): 9.662 fold and 10.9664 fold and 10.3366 fold and 9.703 fold
- percentage of red dots among total LC3 dots (HeLa cells [6]; EBSS 6 h): 63.9%
- APL formation / autophagy (in words) (HeLa cells [6]; EBSS, BafA1 10 nM): did not inhibit
- Luciferase activity (fold) (Nurr1-LBD; Fig. S3a, 0.001 µM): 1.103 fold and 1.1109 fold and 1.11 fold
- Luciferase activity (fold) (Nurr1-LBD; Fig. S3a, 0.01 µM): 2.094 fold and 2.1057 fold and 1.929 fold
- Luciferase activity (fold) (Nurr1-LBD; Fig. S3a, 0.1 µM): 4.339 fold and 4.261 fold and 4.17 fold
- Luciferase activity (fold) (Nurr1-LBD; Fig. S3a, 1 µM): 7.077 fold and 6.781 fold and 6.645 fold
- Luciferase activity (fold) (Nurr1-LBD; Fig. S3a, 10 µM): 6.849 fold and 6.689 fold and 7.128 fold
- Luciferase activity (fold) (Nurr1-LBD; Fig. S1d, conc. 1 µM, replicates): 6.4567 fold and 6.799 fold and 6.563 fold
- Luciferase activity (fold) (Nurr1-LBD; Fig. S1d, conc. 10 µM, replicates): 6.943 fold and 6.5332 fold and 6.663 fold
- Luciferase activity (fold) (Nurr1-LBD; Fig. S1d, conc. 10-1 µM, replicates): 3.61 fold and 3.7661 fold and 3.609 fold
- Luciferase activity (fold) (Nurr1-LBD; Fig. S1d, conc. 10-2 µM, replicates): 1.993 fold and 2.235 fold and 2.074 fold
- Luciferase activity (fold) (Nurr1-LBD; Fig. S1d, conc. 10-3 µM, replicates): 1.142 fold and 1.201 fold and 1.251 fold
- potency to activate Nurr1 relative to CQ (Nurr1-LBD; MN9D cells, Supplementary Fig. 3a,b): approximately 50 fold
- autophagic flux (in words) (HeLa cells [7]; 10-times higher concentrations than 1 µM): did not inhibit autophagy
- autophagic flux (in words) (HeLa cells [7]; LC3B-II and p62): completed
- Relative LC3B-II experession (normalized to β-actin) (HeLa cells [7]; time 0h): 0.384 and 0.423 and 0.339
- Relative LC3B-II experession (normalized to β-actin) (HeLa cells [7]; time 0.5h): 0.455 and 0.539 and 0.396
- Relative LC3B-II experession (normalized to β-actin) (HeLa cells [7]; time 1h): 0.533 and 0.561 and 0.521
- Relative LC3B-II experession (normalized to β-actin) (HeLa cells [7]; time 2h): 0.526 and 0.509 and 0.466
- Relative LC3B-II experession (normalized to β-actin) (HeLa cells [7]; time 4h): 0.415 and 0.449 and 0.331
- Relative p62 experession (normalized to β-actin) (HeLa cells [7]; time 0h): 0.809 and 0.904 and 0.909
- Relative p62 experession (normalized to β-actin) (HeLa cells [7]; time 0.5h): 0.889 and 0.886 and 0.829
- Relative p62 experession (normalized to β-actin) (HeLa cells [7]; time 1h): 0.800 and 0.736 and 0.720
- Relative p62 experession (normalized to β-actin) (HeLa cells [7]; time 2h): 0.670 and 0.672 and 0.687
- Relative p62 experession (normalized to β-actin) (HeLa cells [7]; time 4h): 0.552 and 0.570
- Relative LC3B-II expression (normalized to β-actin) (HeLa cells [7]; Conc. 1 µM): 0.5044 and 0.5121 and 0.5349
- Relative LC3B-II expression (normalized to β-actin) (HeLa cells [7]; Conc. 10 µM): 0.4913 and 0.4289 and 0.4955
- Relative p62 expression (normalized to β-actin) (HeLa cells [7]; Conc. 1 µM): 0.2532 and 0.2036 and 0.1875
- Relative p62 expression (normalized to β-actin) (HeLa cells [7]; Conc. 10 µM): 0.2002 and 0.2111 and 0.1727
- Lysosomal pH (N27-A cells): 3.797 and 3.992 and 4.709 and 4.807 and 4.383 and 3.8621 and 3.96 and 4.416 and 4.97 and 4.481 and 4.351 and 4.742 and 4.221 and 3.927
